Values after ≈ are worked out from the molar mass of the structure shown. Values joined by “and” are separate entries in the source; they are usually repeats but may differ in a detail not shown here. Equal values may be shown once.
What was measured:
[1] = tested on: Bacillus cereus (11778); test: MIC, NCCLS broth microdilution; format: cell-based
[2] = tested on: Candida albicans (90028); test: MIC, antifungal assay; format: cell-based
[3] = tested on: Micrococcus luteus (381); test: MIC, NCCLS broth microdilution; format: cell-based
[4] = tested on: Streptococcus pneumoniae (49619); test: MIC, NCCLS broth microdilution; format: cell-based; settings: Streptococcus pneumoniae (49619)
[5] = tested on: Corynebacterium Group A (49676); test: MIC, NCCLS broth microdilution; format: cell-based; settings: Corynebacterium Group A (49676)
[6] = tested on: Streptococcus pyogenes (49339); test: MIC, NCCLS broth microdilution; format: cell-based; settings: Streptococcus pyogenes (49339); Table Ia: Streptococcus Group A(49339)
[7] = tested on: AATACT; test: DNase I footprint titration, AATACT site; format: binding; settings: equilibrium association constant Ka; pH 7.0, 22° C.
[8] = tested on: Pseudomona aeruginosa (27853); test: MIC, NCCLS broth microdilution; format: cell-based; settings: Pseudomona aeruginosa (27853)
[9] = tested on: ATTACT; test: DNase I footprint titration, ATTACT site; format: binding; settings: equilibrium association constant Ka; pH 7.0, 22° C.
[10] = tested on: Staphylococcus aureus (33591) (methicillin resistant); test: MIC, NCCLS broth microdilution; format: cell-based; settings: Staphylococcus aureus (33591), methicillin resistant (MRSA)
[11] = tested on: Esherichia coli (25922); test: MIC, NCCLS broth microdilution; format: cell-based, Escherichia coli; settings: Escherichia coli (25922)
[12] = tested on: Clostridium perfringens (13124); test: microbe, parasite or virus in culture; format: cell-based; settings: Clostridium perfringens (13124), anaerobe
[13] = tested on: ACTACT; test: DNase I footprint titration, ACTACT site; format: binding; settings: equilibrium association constant Ka; pH 7.0, 22° C.
[14] = tested on: Staphylococcus epidermidis (12228); test: MIC, NCCLS broth microdilution; format: cell-based; settings: Staphylococcus epidermidis (12228)
[15] = tested on: Enterococcus faecium (51559) (vacomycin resistant); test: MIC, NCCLS broth microdilution; format: cell-based; settings: Enterococcus faecium (51559), vancomycin resistant
[16] = tested on: Enterococcus faecalis (29212); test: MIC, NCCLS broth microdilution; format: cell-based; settings: Enterococcus faecalis (29212)
[17] = tested on: Propionibacterium acnes (33179); test: MIC, NCCLS broth microdilution; format: cell-based; settings: anaerobe
[18] = tested on: Peptostreptococcus asaccharolytics (29743); test: MIC, NCCLS broth microdilution; format: cell-based; settings: anaerobe
[19] = tested on: Streptococcus pneumoniae (51422) (multiple drug resistant); test: MIC, NCCLS broth microdilution; format: cell-based
[20] = tested on: AGTACT; test: DNase I footprint titration, AGTACT site; format: binding; settings: equilibrium association constant Ka; pH 7.0, 22° C.
[21] = tested on: Staphylococcus aureus (29213); test: MIC, NCCLS broth microdilution; format: cell-based; settings: Staphylococcus aureus (29213)
[22] = tested on: Bacillus subtilis (6633); test: MIC, NCCLS broth microdilution; format: cell-based; settings: Bacillus subtilis (6633)
[23] = tested on: Candida albicans (38247) (Polyene resistant); test: MIC, antifungal assay; format: cell-based
[24] = Bacillus cereus, strain not stated

Row | Structure (SMILES) | MIC [11] | MIC ([1]; Bacillus cereus (11778)) [µg/mL] | MIC [21] | MIC [23] [µg/mL] | other results
1 | Cn1cc(NC(=O)c2cc(NC(=O)c3nsc(NCCN4CCOCC4)c3Cl)cn2C)cc1C(N)=O [V-bb] |  |  |  |  | MIC [1, 24]: 8 µg/mL (≈ 15 µM)
2 | CN(C)CCCNC(=O)c1cc(NC(=O)c2cc(NC(=O)c3cc(NC(=O)c4nsc(NCCN)c4Cl)cn3C)cn2C)cn1C [V-c] | >128 µg/mL | 4 (≈ 5.95 µM) | 8 µg/mL (≈ 11.9 µM) |  | MIC [2]: 8 µg/mL (≈ 11.9 µM); MIC [3]: 8 µg/mL (≈ 11.9 µM); MIC [4]: 2 µg/mL (≈ 2.98 µM); MIC [5]: 1 µg/mL (≈ 1.49 µM); MIC [6]: 2 µg/mL (≈ 2.98 µM); Binding Constant, sequence AATACT [7]: 2e+08 M⁻¹; MIC [8]: >128 µg/mL; Binding Constant, sequence ATTACT [9]: 2e+08 M⁻¹; MIC [10]: 16 µg/mL (≈ 23.8 µM); MIC [12]: 2 µg/mL (≈ 2.98 µM); Binding Constant, sequence ACTACT [13]: 2e+08 M⁻¹; MIC [14]: 8 µg/mL (≈ 11.9 µM); MIC [15]: 8 µg/mL (≈ 11.9 µM); MIC [16]: 4 µg/mL (≈ 5.95 µM); MIC [17]: 8 µg/mL (≈ 11.9 µM); MIC [18]: 0.5 µg/mL (≈ 0.744 µM); MIC [19]: 4 µg/mL (≈ 5.95 µM); Binding Constant, sequence AGTACT [20]: 5e+09 M⁻¹; MIC [22]: 4 µg/mL (≈ 5.95 µM)
3 | Cn1cc(NC(=O)c2cc(NC(=O)c3cc(NC(=O)c4nsc(Cl)c4Cl)cn3C)cn2C)cc1C(=O)NCCC(=N)N [V-ee] | 64, μg/mL and 32 μg/mL | 0.25 (≈ 0.395 µM) | 0.25, μg/mL and 0.125 μg/mL | 2 (≈ 3.16 µM) | 
4 | Cn1cc(NC(=O)c2cc(NC(=O)c3cc(NC(=O)c4nsc(NCCCNC5CCCCC5)c4Cl)cn3C)cn2C)cc1C(=O)NCCCNC1CCCCC1 [V-ff] | 32 µg/mL (≈ 38.9 µM) | 2 (≈ 2.43 µM) | 1 µg/mL (≈ 1.22 µM) | 16 (≈ 19.5 µM) | 
5 | Cn1cc(NC(=O)c2cc(NC(=O)c3cc(NC(=O)c4nsc(NCCN5CCOCC5)c4Cl)cn3C)cn2C)cc1C(=O)NCCN1CCOCC1 [V-gg] | 32 µg/mL (≈ 41.5 µM) |  | 2, μg/mL and 1 μg/mL | 32 (≈ 41.5 µM) | 
6 | Cn1cc(NC(=O)c2cc(NC(=O)c3cc(NC(=O)c4nsc(N5CCCCC5)c4Cl)cn3C)cn2C)cc1C(=O)NCCN1CCOCC1 [V-hh] | 32 µg/mL (≈ 44.1 µM) | 1 (≈ 1.38 µM) | 1 µg/mL (≈ 1.38 µM) | 32 (≈ 44.1 µM) | 
7 | COc1snc(C(=O)Nc2cc(C(=O)Nc3cc(C(=O)Nc4cc(C(=O)NCCC(=N)N)n(C)c4)n(C)c3)n(C)c2)c1Cl [V-jj] | 32 µg/mL (≈ 50.9 µM) | 0.25 (≈ 0.397 µM) | 0.5 µg/mL (≈ 0.795 µM) | 1 (≈ 1.59 µM) | 
8 | Cn1cc(NC(=O)c2cc(NC(=O)c3cc(NC(=O)c4nsc(Cl)c4Cl)cn3C)cn2C)cc1C(=O)NCCN1CCOCC1 [V-mm] | 32 µg/mL (≈ 47.3 µM) | 0.25 (≈ 0.37 µM) | 0.5 µg/mL (≈ 0.739 µM) | 32 (≈ 47.3 µM) | 
9 | CN=C(CCNC(=O)c1cc(NC(=O)c2cc(NC(=O)c3cc(NC(=O)c4nsc(Cl)c4Cl)cn3C)cn2C)cn1C)NC [V-nn] | 32 µg/mL (≈ 48.4 µM) | 0.064 (≈ 0.0967 µM) | 0.031 µg/mL (≈ 0.0469 µM) | 1 (≈ 1.51 µM) | 
10 | COc1snc(C(=O)Nc2cc(C(=O)Nc3cc(C(=O)Nc4cc(C(=O)NCCNC(=N)N)n(C)c4)n(C)c3)n(C)c2)c1Cl [V-oo] | 32 µg/mL (≈ 49.7 µM) | 0.5 (≈ 0.776 µM) | 0.25 µg/mL (≈ 0.388 µM) | 1 (≈ 1.55 µM) | 
11 | CN=C(N)CCNC(=O)c1cc(NC(=O)c2cc(NC(=O)c3cc(NC(=O)c4nsc(Cl)c4Cl)cn3C)cn2C)cn1C [V-pp] | 32 µg/mL (≈ 49.4 µM) | 0.5 (≈ 0.772 µM) | 0.5 µg/mL (≈ 0.772 µM) | 4 (≈ 6.18 µM) | 
12 | CN(C)CCCNC(=O)c1cc(NC(=O)c2cc(NC(=O)c3cc(NC(=O)c4nsc(NCCCN(C)C)c4Cl)cn3C)cn2C)cn1C [V-q] | >128 µg/mL | 4 to 8 | 8 to 16 µg/mL |  | MIC [3]: 8 µg/mL (≈ 11.2 µM); MIC [4]: 2 µg/mL (≈ 2.8 µM); MIC [5]: 1 µg/mL (≈ 1.4 µM); MIC [6]: 1 µg/mL (≈ 1.4 µM); MIC [8]: >128 µg/mL; MIC [10]: 16 µg/mL (≈ 22.4 µM); MIC [14]: 4 µg/mL (≈ 5.6 µM); MIC [15]: 4 µg/mL (≈ 5.6 µM); MIC [16]: 1 µg/mL (≈ 1.4 µM); MIC [19]: 4 µg/mL (≈ 5.6 µM)
13 | Cn1cc(NC(=O)c2cc(NC(=O)c3cc(NC(=O)c4nsc(NCCN)c4Cl)cn3C)cn2C)cc1C(=O)NCCC1=NCCN1 [V-qq] | 32 µg/mL (≈ 46.8 µM) | 0.25 (≈ 0.366 µM) | 0.25 µg/mL (≈ 0.366 µM) | 32 (≈ 46.8 µM) | 
14 | COCCCNc1snc(C(=O)Nc2cc(C(=O)Nc3cc(C(=O)Nc4cc(C(=O)NCCN5CCOCC5)n(C)c4)n(C)c3)n(C)c2)c1Cl [V-rr] | 32 µg/mL (≈ 43.9 µM) | 0.5 (≈ 0.686 µM) | 1 µg/mL (≈ 1.37 µM) | 32 (≈ 43.9 µM) | 
15 | Cn1cc(NC(=O)c2cc(NC(=O)c3cc(NC(=O)c4nsc(NCC5CC5)c4Cl)cn3C)cn2C)cc1C(=O)NCCN1CCOCC1 [V-tt] | 32 µg/mL (≈ 45 µM) | 0.25 (≈ 0.351 µM) | 0.5 µg/mL (≈ 0.703 µM) | 32 (≈ 45 µM) | 
16 | CN(C)CCCNC(=O)CCNC(=O)c1cc(NC(=O)c2cc(NC(=O)c3cc(NC(=O)c4nsc(Cl)c4Cl)cn3C)cn2C)cn1C [V-u] |  |  |  |  | Binding Constant, sequence AATACT [7]: 1e+08 M⁻¹; Binding Constant, sequence ATTACT [9]: 5e+08 M⁻¹; Binding Constant, sequence ACTACT [13]: 1e+09 M⁻¹; Binding Constant, sequence AGTACT [20]: 1e+11 M⁻¹
17 | Cn1cc(NC(=O)c2cc(NC(=O)c3cc(NC(=O)c4nsc(Cl)c4Cl)cn3C)cn2C)cc1C(=O)NCCC1=NCCN1 [V-uu] |  | 1 (≈ 1.52 µM) | 0.25 µg/mL (≈ 0.379 µM) |  | 
18 | CN(C)CCCNC(=O)c1cc(NC(=O)c2cc(NC(=O)c3cc(NC(=O)c4nsc(N5CCCCC5)c4Cl)cn3C)cn2C)cn1C [V-w] |  |  |  |  | MIC [1, 24]: 0.5 µg/mL (≈ 0.717 µM)
19 | CN(C)CCCNC(=O)CCNC(=O)c1cc(NC(=O)c2cc(NC(=O)c3cc(NC(=O)c4nc(NC(=O)CCCNC(=O)c5cc(NC(=O)c6cc(NC(=O)c7cc(NC(=O)c8nsc(Cl)c8Cl)cn7C)cn6C)cn5C)cn4C)cn3C)cn2C)cn1C [VI-a] |  |  |  |  | Binding Constant, sequence AATACT [7]: 2e+09 M⁻¹; Binding Constant, sequence ATTACT [9]: 2e+09 M⁻¹; Binding Constant, sequence ACTACT [13]: 2e+09 M⁻¹; Binding Constant, sequence AGTACT [20]: 2e+10 M⁻¹
20 | CN(C)CCCNC(=O)CCNC(=O)c1cc(NC(=O)c2cc(NC(=O)c3cc(NC(=O)c4nc(NC(=O)CCCNC(=O)c5cc(NC(=O)c6cc(NC(=O)c7cc(NC(=O)c8nsc(NCCCN(C)C)c8Cl)cn7C)cn6C)cn5C)cn4C)cn3C)cn2C)cn1C [VI-b] |  |  |  |  | Binding Constant, sequence AATACT [7]: 7e+09 M⁻¹; Binding Constant, sequence ATTACT [9]: 7e+09 M⁻¹; Binding Constant, sequence ACTACT [13]: 7e+09 M⁻¹; Binding Constant, sequence AGTACT [20]: 1e+11 M⁻¹

Reference: patent US20020065227A1, “Charged compounds comprising a nucleic acid binding moiety and uses therefor” (priority 2000, published 2002)
